Results taken from patent US11752156B2, “Compositions and methods for treating hyperproliferative skin disorders” (Athenex HK Innovative Limited, priority 2018, dated 2023).
Where “and” joins values, the source holds several entries; their conditions need not be identical. Equal values may be shown once. Read-outs that look alike come from different tables or passages of the source.

Assays:
apoptosis by G2/M arrest = details: cited from earlier work
[1] = test system: CCD 1106 KERTr human keratinocyte cell line; assay: MTT cell proliferation assay, 72 hours, dark or blue light, keratinocytes; format: cell-based; details: for inhibition at 0.01 µM / inhibition at 0.02 µM / inhibition at 0.04 µM / inhibition at 0.08 µM: Homo sapiens, read-out: growth inhibition relative to untreated control
Experimental: The effects of combined treatment with KX01, a vitamin D derivative, and/or blue/UV light exposure were characterized using a cell proliferation assay. Cell proliferation was assessed by using an MTT assay. Cells were seeded in 96-well plate (3,000-5,000 cells per well) and treated with test compounds at varying concentrations (e.g. KX01: 5 to 80 nM; calcipotriol 5 to 1,280 nM) for 72 hours, either in the dark or exposed to blue light irradiation (for 2, 4, or 6 hours). To each well, 10 μl of 3-(4,5-dimethylthiazol-2-yl)-2,5-diphenyltetrazolium bromide (MTT) (RPI Corporation™) solution (5 mg/ml in PBS) was added and incubated at 37° C. for 3 hours. Next, 100 μl of 20% SDS was added to each well. After overnight incubation at 37° C., the absorbance in each well was measured at 570 nm in a microplate reader (Molecular Devices™). The cell growth curve and GI50s were calculate using GraphPad Prism™ 5 software. Tables 13 and 14 show the results of cell growth inhibition studies (expressed as a percentage relative to control cell growth) for treatment with either KX01 or calcipotriol in combination with exposure to blue light. […] The percentage of growth inhibition relative to untreated control is shown. […] The percentage of growth inhibition relative to untreated control is shown. Tables 15 to 18 show the effects of combined treatment with KX01, calcipotriol, and exposure to blue light at 0 hours, 2 hours, 4 hours, and 6 hours of light exposure (respectively). Values are expressed as the percentage of growth inhibition relative to cells grown under control conditions (0 hours blue light, [KX01]=0, [calcipotriol]=0). […] Results are shown below in Tables 27 to Table 30, which show results from 0, 2, 4, and 6 hours of blue light exposure (respectively). Values are expressed as the percentage of growth inhibition relative to cells grown under control conditions (0 hours blue light, [KX01]=0, [calcipotriol]=0).

CCD-1106 KERTr cells = assay: FITC annexin V / PI apoptosis assay by flow cytometry, 24 hours; format: cell-based, human; details: 24 hours
Experimental: In addition to growth inhibition, Inventors also investigated the effect of KX01 on apoptosis in keratinocytes. CCD-1106 KERTr cells (1×10^6) were seeded in 60 mm dishes and treated with test compounds at varying concentrations (e.g. KX01: 20 to 500 nM; calcipotriol 50 to 1000 nM) for 24 hours. Cell apoptosis was assessed by using a FITC annexin V apoptosis detection kit (BD Biosciences™) according to manufacturer's instruction. Briefly, cells were collected in 1× binding buffer and incubated with fluorescein isothiocyanate (FITC)-conjugated annexin V and propidium iodide (PI) for 15 minutes at room temperature in the dark, followed by flow cytometry analysis using a LSRFortessa™ flow cytometer (BD Biosciences™).

[2] = test system: human keratinocytes in culture (cell line CCD-1106 KERTr); assay: cell viability / cell growth of human keratinocytes in culture, KX01, calcipotriol and fixed-ratio combinations; format: cell-based; set-up: cell growth (cell viability): unit not given here
Source text: Typical data from studies of the effects of compound KX01 provided in combination with calcipotriol on growth of human keratinocytes in culture (cell line CCD-1106 KERTr) are shown in FIGS. 1 to 3 and Tables 1 to 6. FIG. 1 and Tables 1 and 2 show the degree of growth inhibition found in a typical study performed with KX01 and calcipotriol at a 1:5 ratio.

[3] = test system: human keratinocyte cell line; assay: combinatorial dose response surface study of cell viability (PSI), KX01 and calcipotriol; format: cell-based; details: model estimate
Source text: FIG. 6: Dose response surface of cell viability versus calcipotriol concentration versus KX01 concentration. Synergistic combinations of calcipotriol and KX01 are below the surface of additivity (indicating enhanced inhibition of growth), and antagonistic combinations are above the surface of additivity (indicative of reduced inhibition of growth). Individual dose response curves for KX01 and calcipotriol as determined above can be used to generate dose response surfaces representative of the additive effects of these compounds on keratinocyte growth. […] A PSI value of 1 corresponds to an additive effect. A PSI value of less than 1 indicates a synergistic effect, and a PSI value of greater than 1 indicates an antagonistic effect. Cell viability was measured in a number of experiments. In Experiment 1, the concentrations of calcipotriol were: 0, 3, 9, 27, 81, and 243 nM, and the concentrations of KX01 were: 0, 5, 10, 20, 40, 60, 80, and 160 nM. In Experiment 2, the concentrations of calcipotriol were: 0, 5, 10, 20, 40, 80, 160, 320, and 1280 nM, and the concentrations of KX01 were: 1, 3, 9, 27, and 81 nM. […] It is notable that unexpected synergy is observed across a range of concentrations and combinations. Tables 7, 8, and 9 show the results for determination of individual IC50 and maximum inhibitory concentration values for KX01 and calcipotriol, as well as the PSI value for the drug combination. […]

O=C(Cc1ccc(-c2ccc(OCCN3CCOCC3)cc2)cn1)NCc1ccccc1 [KX01, N-benzyl-2-(5-{4-[2-(morpholine-4-yl)ethoxy]phenyl}pyridine-2-yl)acetamide]
induction of apoptosis (apoptosis by G2/M arrest): induces apoptosis by G2/M arrest | inhibition at 0.01 µM ([1]; CCD-1106, 2 h, KX01 10 nM, blue light 2 h): 27% | inhibition at 0.02 µM ([1]; CCD-1106, 2 h, KX01 20 nM, blue light 2 h): 63% | inhibition at 0.04 µM ([1]; CCD-1106, 2 h, KX01 40 nM, blue light 2 h): 92% | inhibition at 0.01 µM ([1]; CCD-1106, 4 h, KX01 10 nM, blue light 4 h): 47% | inhibition at 0.02 µM ([1]; CCD-1106, 4 h, KX01 20 nM, blue light 4 h): 64% | inhibition at 0.04 µM ([1]; CCD-1106, 4 h, KX01 40 nM, blue light 4 h): 87% | inhibition at 0.08 µM ([1]; CCD-1106, 4 h, KX01 80 nM, blue light 4 h): 92% | inhibition at 0.01 µM ([1]; CCD-1106, 6 h, KX01 10 nM, blue light 6 h): 56% | inhibition at 0.02 µM ([1]; CCD-1106, 6 h, KX01 20 nM, blue light 6 h): 70% | inhibition at 0.04 µM ([1]; CCD-1106, 6 h, KX01 40 nM, blue light 6 h): 88% | inhibition at 0.08 µM ([1]; CCD-1106, 6 h, KX01 80 nM, blue light 6 h): 87% | growth inhibition relative to untreated control ([1]; KX01 10 nM, blue light 0 h): 4% and 9% and 6% | growth inhibition relative to untreated control ([1]; KX01 10 nM, blue light 2 h): 32% and 34% | growth inhibition relative to untreated control ([1]; KX01 10 nM, blue light 4 h): 50% | growth inhibition relative to untreated control ([1]; KX01 10 nM, blue light 6 h): 62% and 57% | growth inhibition relative to untreated control ([1]; KX01 20 nM, blue light 0 h): 49% | growth inhibition relative to untreated control ([1]; KX01 20 nM, blue light 2 h): 74% and 68% | growth inhibition relative to untreated control ([1]; KX01 20 nM, blue light 4 h): 69% and 68% | growth inhibition relative to untreated control ([1]; KX01 20 nM, blue light 6 h): 67% and 73% | growth inhibition relative to untreated control ([1]; KX01 40 nM, blue light 0 h): 90% and 45% | growth inhibition relative to untreated control ([1]; KX01 40 nM, blue light 2 h): 98% and 91% | growth inhibition relative to untreated control ([1]; KX01 40 nM, blue light 4 h): 86% | growth inhibition relative to untreated control ([1]; KX01 40 nM, blue light 6 h): 84% | growth inhibition relative to untreated control ([1]; KX01 80 nM, blue light 0 h): 96% and 48% and 95% | growth inhibition relative to untreated control ([1]; KX01 80 nM, blue light 4 h): 93% and 90% | growth inhibition relative to untreated control ([1]; KX01 80 nM, blue light 6 h): 83% | effect of blue light exposure with the drug on cell growth inhibition ([1]; for example 6 hours of blue light with 10 nm KX01): Synergistic effects | late apoptic cells (CCD-1106 KERTr cells; KX01 20 nM): 2.09% | late apoptic cells (CCD-1106 KERTr cells; KX01 40 nM): 3.50% | late apoptic cells (CCD-1106 KERTr cells; KX01 100 nM): 6.33% | late apoptic cells (CCD-1106 KERTr cells; KX01 500 nM): 4.34% | GI50 [2]: 0.038 µM and 0.036 µM | GI50 ([2]; Homo sapiens, CCD-1106): 0.032 µM | viability at 0.000333 µM ([2]; Homo sapiens, CCD-1106, concentration 0.333 nM): 100% | viability at 0.001 µM ([2]; Homo sapiens, CCD-1106, concentration 1 nM): 97% | viability at 0.003 µM ([2]; Homo sapiens, CCD-1106, concentration 3 nM): 90.9% | viability at 0.009 µM ([2]; Homo sapiens, CCD-1106, concentration 9 nM): 94.7% | viability at 0.027 µM ([2]; Homo sapiens, CCD-1106, concentration 27 nM): 67.1% | viability at 0.243 µM ([2]; Homo sapiens, CCD-1106, concentration 243 nM): 2.07% | viability at 0.729 µM ([2]; Homo sapiens, CCD-1106, concentration 729 nM): 6.66% | viability at 2.187 µM ([2]; Homo sapiens, CCD-1106, concentration 2187 nM): 8.91% | cell growth (cell viability) ([2]; concentration 0.333 nM, 0.000333 µM): 102.3 and 98.0 | cell growth (cell viability) ([2]; concentration 1 nM, 0.001 µM): 99.9 and 101.3 | cell growth (cell viability) ([2]; concentration 3 nM, 0.003 µM): 100.0 and 96.6 | cell growth (cell viability) ([2]; concentration 9 nM, 0.009 µM): 100.2 and 98.2 | cell growth (cell viability) ([2]; concentration 27 nM, 0.027 µM): 79.8 and 80.1 | cell growth (cell viability) ([2]; concentration 729 nM, 0.729 µM): 9.9 and 7.3 | cell growth (cell viability) ([2]; concentration 2187 nM, 2.187 µM): 14.9 and 9.5 | IC50 ([3]; Homo sapiens, Keratinocyte): 0.0413 µM | IC50 [3]: 0.0328 µM and 0.047 µM | Max Inhibition [3]: 0.856 and 0.77 and 0.741
